Experimental data from USRE49311E1, “Bacillus thuringiensis RTI545 compositions and methods of use for benefiting plant growth and controlling plant pests” (priority 2016, dated 2022).

Experiments:
[1] = system: wireworm (Melanotus spp.); test: In-furrow corn field trials, wireworm-infested plots (7 trials, North America); format: in vivo; details: vs untreated, average of 7 trials; bifenthrin 56 g ai/Ha, RTI545 3 × 10^11 CFU/Ha, tefluthrin 168 g ai/Ha
Description: (§1) In-furrow treatments of corn with RTI545 were studied in multiple field trials in various locations in North America to evaluate effectiveness against wireworm (Melanotus spp.) and corn rootworm (Diabrotica spp.). The effects on yield and crop damage of several treatments compared to untreated controls for the individual North America trials were aggregated and summarized as an average for the trial in the following tables as % yield increase and % reduction in damage compared to the untreated controls. Seven trials were evaluated for wireworm. Eighteen trials were evaluated for corn rootworm. Five trials with heavy damage from corn rootworm were averaged separately.

[2] = system: corn rootworm (Diabrotica spp.); test: In-furrow corn field trials, corn rootworm-infested plots (18 trials, North America); format: in vivo; details: vs untreated, bifenthrin 112 g ai/Ha, RTI545 1.24 × 10^12 CFU/Ha, tefluthrin 168 g ai/Ha; for % Damage reduction, Heavy CRW Pressure / % Yield Increase, Heavy CRW Pressure: 5 trials; for % Damage reduction / % Yield Increase: 18 trials
Description: as §1

[3] = system: root knot (RKN) nematode juveniles (J2); test: Nematode chemotaxis assay on agar plates; format: in vivo, Meloidogyne spp.; details: for Cf (chemotaxis factor) at 3 h / Cf (chemotaxis factor) at 5 h: Cf<0.5 repellent, >2 attractant
Description: Similarly, activity of RTI545 against nematodes may also be due to compound(s) produced by the strain. A nematode chemotaxis assay on agar plates was conducted as described below to evaluate response of root knot (RKN) nematode juveniles (J2) to different concentrations of kanosamine and RTI545 supernatant in vitro.
The test arena is shown schematically in FIG. 6. Nine-cm-diameter Petri dishes were filled with 15 ml 0.75% Phytagel (including 0.1% MgSO4.7H2O). […] was used, instead of water agar, so that nematode tracks could be observed under a microscope. Wells of 0.5 cm diameter which can accommodate approximately 50 μl of solution were made at opposite sides of the dishes at 2 cm from the center. The test samples were applied in the wells and left to diffuse for 1 hour with lids on the dishes, so a gradient around the wells could be established. Then, 75-100 J2 stage root-knot nematodes suspended in 5 μl of sterile distilled water were placed by pipette in the center 1.5 cm-diameter circle of the plate. When the surface tension of the water suspension was lost, the dishes were covered with lids and incubated in the dark on a leveled platform at 25° C. for […]. After incubation the plates were transferred to 4° C. to stop nematode movement for scoring at 2 h, 3 h and 5 h after setup. Three replicates were done for each test material.
For scoring, the test arena was divided into sixteen zones, designated as 1-8 for attractive zones and a-h for repellent zones as shown in FIG. 6A. Nematodes attracted to the test substance would tend to move to the numbered (attractive) zones, resulting in clustering along the axis parallel to the orientation of the wells. Repelled nematodes would tend to move to the lettered (repellant) zones, resulting in clustering along the axis perpendicular to the orientation of the wells. The chemotaxis factor (Cf) was calculated by dividing the total number of nematodes in the attractant zones by the total number of nematodes in the repellent zones. A Cf greater than 2 meant attraction for the nematodes, while lower than 0.5 indicated repellence, and 0.5 to 2 was considered neutral.

lesion nematode = test: Soil drench tests against lesion nematode; format: in vivo, Pratylenchus penetrans
Description: Similar tests wherein RTI545 was applied as a soil drench at the rate of 2.5×10^11 CFU/ha provided 71% reduction in lesion nematode numbers per root compared to 95% for abamectin. In soil drench tests applied to pots in the greenhouse with soil infested with lesion nematode eggs and adults (2000 individuals/pot) RTI545 at the rate of 2.5×10^13 CFU/ha provided 80% reduction in nematode numbers per root compared to 86% reduction by cadusafos.

[4] = system: soybean cyst nematode (Heterodera glycines); test: Soybean cyst nematode soil drench assay, greenhouse; format: in vivo; details: day 70
[5] = system: root knot nematode (RKN) eggs; test: Root knot nematode egg hatching assay, 24-well plates; format: in vivo, Meloidogyne incognita/hapla; details: for % Hatching after 7 days / % Hatching after 14 days: mean of 6 replicates ± SD
Description: The following day, the optical density (OD) of 1:100 dilutions was measured at 600 nm to estimate the volume needed for inoculation of fermentation flasks. […] Bacteria were grown overnight (for 16 h) at 200 rpm at 30° C. Two ml of bacterial culture was saved to measure the OD and colony forming units (CFU). The remaining culture was centrifuged (2500 rpm, 15 min) and the supernatant was filter-sterilized through a 0.22 μm filter. […] The supernatant was kept at 4° C. until the initiation of the bioassay. […] A mixed culture of root knot nematodes (Meloidogyne incognita and M. hapla) was used. Nematode eggs were extracted from tomato roots by bleaching and cleaned using an Opti-prep centrifugation step followed by two washes in water. Before setting up the hatching assay, the percentage of early (eggs with a visible embryo) and late eggs (eggs with differentiated juveniles inside; […] Only fresh eggs (collected at the day of the initiation of the assay) were used for the bioassay. The assay was performed in 24-well tissue culture plates. […] Antibiotics were suspended in sterile distilled water. The final concentration of antibiotics in testing plates was 75 mg/L of penicillin and 75 mg/L of streptomycin. […] The addition of methyl cellulose increases the accuracy of adding the same number of inoculum to each treatment. The treatments were set up in 6 replications. Each plate was covered, wrapped in aluminum foil and placed in an incubator set at 25° C. […] For each time point and treatment, the percent hatching was calculated according to the formula: […] All treatments were supplemented with antibiotics (75 mg/L of penicillin and 75 mg/L of streptomycin) to prevent contamination. Data are means from 6 replicates± standard deviation of the means.

[6] = system: Southern Corn Rootworm (SCRW) larvae; test: SCRW larvae choice feeding assay of corn seedlings; details: for Mean percent of SCRW larvae on treated portion of the filter paper / Mean percent of SCRW larvae on untreated portion of the filter paper: 3 days
Description: Repellency was measured using a choice in vitro plate feeding assay of corn seedlings by SCRW larvae and scored after 72 hours as the percentage of SCRW larvae on the non-treated side of the plate. In the case of no repellency, an equal distribution of 50% on both the treated and non-treated half of the plate would be expected, indicating 0% repellency. In this experiment, the Bacillus thuringiensis RTI545 and Bacillus thuringiensis subsp. kurstaki HD-1 (HD-1), were evaluated in comparison to a water control after 3 days in the assay.
The choice feeding assay for SCRW larvae using corn seedlings was also repeated to compare RTI545 to another Bacillus thuringiensis strain FD30 and kanosamine. […] Repellency was measured using a choice in vitro plate feeding assay of corn seedlings by SCRW larvae and scored after 72 hours as the percentage of SCRW larvae on the non-treated side of the plate. In the case of no repellency, an equal distribution of 50% on both the treated and non-treated half of the plate would be expected, indicating 0% repellency.

[7] = RTI545 2.5 × 10^12 CFU/ha, Abamectin 0.01 ppm, VENERATE XC 500 mg/plant
[8] = RTI545 2.5 × 10^13 CFU/ha, Abamectin 0.1 ppm
[9] = kanosamine 100 μg/ml (alone or + FD30)

Compound: Cc1c(COC(=O)[C@@H]2[C@H](/C=C(\Cl)C(F)(F)F)C2(C)C)cccc1-c1ccccc1 (racemic) [Bifenthrin]
- % Yield Increase [1]: 5%
- % Damage reduction, Heavy CRW Pressure [2]: 45%
- % Yield Increase, Heavy CRW Pressure [2]: 11%
- % Damage reduction [2]: 42%
- % Yield Increase [2]: 4%

Compound: Cc1c(F)c(F)c(COC(=O)[C@@H]2[C@H](/C=C(\Cl)C(F)(F)F)C2(C)C)c(F)c1F (racemic) [Tefluthrin]
- % Yield Increase [1]: 5%
- % Damage reduction, Heavy CRW Pressure [2]: 52%
- % Yield Increase, Heavy CRW Pressure [2]: 16%
- % Damage reduction [2]: 46%
- % Yield Increase [2]: 3%

Compound: CC(=O)O [Acetic Acid]
- Cf (chemotaxis factor) at 3 h ([3]; acetic acid 1%): 0.45
- Cf (chemotaxis factor) at 5 h ([3]; acetic acid 1%): 0.4
- Cf (chemotaxis factor) at 2 h ([3]; acetic acid 1%, data not shown): neutral

Compound: CCOP(=O)(SC(C)CC)SC(C)CC (stereo not shown) [cadusafos]
- Reduction in nematode numbers per root (lesion nematode; soil drench to greenhouse pots, eggs and adults 2000 individuals/pot, RTI545 2.5×10^13 CFU/ha): 86%

Compound: abamectin
- % Reduction of cysts [4, 7]: 79%
- Number of cysts extracted [4, 7]: 31
- % Reduction of cysts [4, 8]: 96%
- Number of cysts extracted [4, 8]: 7
- % Hatching after 7 days ([5]; abamectin 0.1 ppm): 24.4 ± 2.9%
- % Hatching after 14 days ([5]; abamectin 0.1 ppm): 27.8 ± 5.7%
- % Hatching after 7 days ([5]; abamectin 1.0 ppm): 4.9 ± 0.9%
- % Hatching after 14 days ([5]; abamectin 1.0 ppm): 8.5 ± 1.6%
- Egg hatching inhibition ([5]; rate of 1 ppm, after 14 days): 72%
- Reduction in lesion nematode numbers per root (lesion nematode; soil drench, RTI545 2.5×10^11 CFU/ha): 95%

Compound: kanosamine
- Mean percent of SCRW larvae on treated portion of the filter paper ([6]; kanosamine 10 μg/ml): 16.67%
- Mean percent of SCRW larvae on untreated portion of the filter paper ([6]; kanosamine 10 μg/ml): 83.33%
- Mean percent of SCRW larvae on treated portion of the filter paper [6, 9]: 16.67%
- Mean percent of SCRW larvae on untreated portion of the filter paper [6, 9]: 83.33%
- Repellent effects on SCRW ([6]; all dilution rates between 0.1 μg/ml and 100.0 μg/ml, at 24 h, two separate bioassays): repellent effects
- Feeding damage on corn ([6]; at 3 d, choice assay): minimal feeding damage
- Repellency to SCRW ([6]; second test, filter paper treated with 30.0 ug/ml, out to 5 days): complete repellency
- Avoidance response of SCRW ([6]; treated filter paper at 10 and 100 μg/ml): 80%
- Cf (chemotaxis factor) ([3]; all tested kanosamine rates (1, 10 and 100 μg/ml) and all time points): higher than 0.5
- Cf (chemotaxis factor) at 3 h ([3]; kanosamine 1 μg/ml): 1.0
- Cf (chemotaxis factor) at 5 h ([3]; kanosamine 1 μg/ml): 1.0
- Cf (chemotaxis factor) at 3 h ([3]; kanosamine 10 μg/ml): 0.6
- Cf (chemotaxis factor) at 5 h ([3]; kanosamine 10 μg/ml): 0.7
- Cf (chemotaxis factor) at 3 h ([3]; kanosamine 100 μg/ml): 0.6
- Cf (chemotaxis factor) at 5 h ([3]; kanosamine 100 μg/ml): 0.7
- Hatching rate higher than in water control ([5]; after seven days): up to 80%
- % Hatching after 7 days ([5]; kanosamine 1 μg/ml): 35.9 ± 5.2%
- % Hatching after 14 days ([5]; kanosamine 1 μg/ml): 40.1 ± 6.8%
- % Hatching after 7 days ([5]; kanosamine 10 μg/ml): 39.4 ± 3%
- % Hatching after 14 days ([5]; kanosamine 10 μg/ml): 42.1 ± 12.1%
- % Hatching after 7 days ([5]; kanosamine 100 μg/ml): 32.4 ± 4.8%
- % Hatching after 14 days ([5]; kanosamine 100 μg/ml): 41.6 ± 6.8%
